Laboratory results as given in ChEMBL document CHEMBL1144510, “Synthesis of beta-ketophosphonate analogs of glutamyl and glutaminyl adenylate, and selective inhibition of the corresponding bacterial aminoacyl-tRNA synthetases” (Bioorg Med Chem, 2007).

Key:
[1] = Inhibition of Escherichia coli GluRS
[2] = Ratio of Ki for calf liver GluRS to Ki for Escherichia coli GluRS
[3] = Inhibition of cytoplasmic calf liver GluRS; set-up: species or system Bos taurus
[4] = Inhibition of Escherichia coli GlnRS

SMILES	Ki [1]	Ratio Ki [2]	Ki [3]	Ki [4]
Nc1ncnc2c1ncn2[C@@H]1O[C@H](COP(=O)(O)CC(=O)[C@@H](N)CCC(=O)O)[C@@H](O)[C@H]1O	18 µM	145	2600 µM	2800 µM
NC(=O)CC[C@H](N)C(=O)CP(=O)(O)OC[C@H]1O[C@@H](n2cnc3c(N)ncnc32)[C@H](O)[C@@H]1O	2900 µM			650 µM
Nc1ncnc2c1ncn2[C@@H]1OC(COS(=O)(=O)NC(=O)[C@@H](N)CCC(=O)O)[C@@H](O)[C@H]1O (some centres undefined)	0.0028 µM	25	0.07 µM	
